Organism: Rattus norvegicus
Assay: DrugMatrix - Regimen: Daily Repeat
Format: toxicity, organism-based, Sprague-Dawley
Parameters: regimen Daily Repeat, gender Male, age 6-8 weeks
Conditions: in vivo, po, 430 mg/kg, route oral GAVAGE, dose level High, vehicle .5 % CMC; for ABSOLUTE BASOPHIL / ABSOLUTE EOSINOPHIL / ABSOLUTE LYMPHOCYTE / ABSOLUTE MONOCYTE / ABSOLUTE SEGMENTED NEUTROPHIL / BASOPHIL / EOSINOPHIL / ERYTHROCYTE COUNT / HEMATOCRIT / HEMOGLOBIN / LEUKOCYTE COUNT / LYMPHOCYTE / MEAN CORPUSCULAR HEMOGLOBIN / MEAN CORPUSCULAR HEMOGLOBIN CONCENTRATION / MEAN CORPUSCULAR VOLUME / MONOCYTE / NEUTROPHIL / NUCLEATED RED BLOOD CELLS / PLATELET COUNT: tissue Blood; for ALANINE AMINOTRANSFERASE / ALBUMIN / ALKALINE PHOSPHATASE / ASPARTATE AMINOTRANSFERASE / BLOOD UREA NITROGEN / CARBON DIOXIDE / CHLORIDE / CHOLESTEROL / CREATININE / GLUCOSE / LACTATE DEHYDROGENASE / LIPASE / PHOSPHORUS / POTASSIUM / SODIUM / TOTAL BILIRUBIN / TOTAL PROTEIN / URIC ACID: tissue Plasma

ClC(Cl)Br [BROMODICHLOROMETHANE]
ABSOLUTE BASOPHIL (72 h, time 3 day): 0 CELLS/uL
ABSOLUTE EOSINOPHIL (72 h, time 3 day): 216.67 CELLS/uL
ABSOLUTE LYMPHOCYTE (72 h, time 3 day): 11508.33 CELLS/uL
ABSOLUTE MONOCYTE (72 h, time 3 day): 948.33 CELLS/uL
ABSOLUTE SEGMENTED NEUTROPHIL (72 h, time 3 day): 1326.67 CELLS/uL
BASOPHIL (72 h, time 3 day): 0%
EOSINOPHIL (72 h, time 3 day): 1.33%
ERYTHROCYTE COUNT (72 h, time 3 day): 6.13 x10E6/uL
HEMATOCRIT (72 h, time 3 day): 37.07%
HEMOGLOBIN (72 h, time 3 day): 13.87 G/DL
LEUKOCYTE COUNT (72 h, time 3 day): 14 x10E3/uL
LYMPHOCYTE (72 h, time 3 day): 82.33%
MEAN CORPUSCULAR HEMOGLOBIN (72 h, time 3 day): 22.63 pg
MEAN CORPUSCULAR HEMOGLOBIN CONCENTRATION (72 h, time 3 day): 37.4 G/DL
MEAN CORPUSCULAR VOLUME (72 h, time 3 day): 60.47 fL
MONOCYTE (72 h, time 3 day): 6.67%
NEUTROPHIL (72 h, time 3 day): 9.67%
NUCLEATED RED BLOOD CELLS (72 h, time 3 day): 0 /100WBC
PLATELET COUNT (72 h, time 3 day): 1186 x10E3/uL
ALANINE AMINOTRANSFERASE (72 h, time 3 day): 73.33 u/L
ALBUMIN (72 h, time 3 day): 4.57 G/DL
ALKALINE PHOSPHATASE (72 h, time 3 day): 459.67 u/L
ASPARTATE AMINOTRANSFERASE (72 h, time 3 day): 106 u/L
BLOOD UREA NITROGEN (72 h, time 3 day): 18.67 mg/dL
CARBON DIOXIDE (72 h, time 3 day): 23 mmol/L
CHLORIDE (72 h, time 3 day): 104.67 MEQ/L
CHOLESTEROL (72 h, time 3 day): 72 mg/dL
CREATININE (72 h, time 3 day): 0.22 mg/dL
GLUCOSE (72 h, time 3 day): 124.33 mg/dL
LACTATE DEHYDROGENASE (72 h, time 3 day): 655 u/L
LIPASE (72 h, time 3 day): 9 u/L
PHOSPHORUS (72 h, time 3 day): 12.47 mg/dL
POTASSIUM (72 h, time 3 day): 6.06 MEQ/L
SODIUM (72 h, time 3 day): 141.67 MEQ/L
TOTAL BILIRUBIN (72 h, time 3 day): 0.27 mg/dL
TOTAL PROTEIN (72 h, time 3 day): 5.93 G/DL
URIC ACID (72 h, time 3 day): 1.9 mg/dL
ABSOLUTE BASOPHIL (120 h, time 5 day): 0 CELLS/uL
ABSOLUTE EOSINOPHIL (120 h, time 5 day): 20 CELLS/uL
ABSOLUTE LYMPHOCYTE (120 h, time 5 day): 7894 CELLS/uL
ABSOLUTE MONOCYTE (120 h, time 5 day): 268.67 CELLS/uL
ABSOLUTE SEGMENTED NEUTROPHIL (120 h, time 5 day): 750.67 CELLS/uL
BASOPHIL (120 h, time 5 day): 0%
EOSINOPHIL (120 h, time 5 day): 0.33%
ERYTHROCYTE COUNT (120 h, time 5 day): 6.18 x10E6/uL
HEMATOCRIT (120 h, time 5 day): 35.9%
HEMOGLOBIN (120 h, time 5 day): 13 G/DL
LEUKOCYTE COUNT (120 h, time 5 day): 8.93 x10E3/uL
LYMPHOCYTE (120 h, time 5 day): 88.67%
MEAN CORPUSCULAR HEMOGLOBIN (120 h, time 5 day): 21.07 pg
MEAN CORPUSCULAR HEMOGLOBIN CONCENTRATION (120 h, time 5 day): 36.23 G/DL
MEAN CORPUSCULAR VOLUME (120 h, time 5 day): 58.1 fL
MONOCYTE (120 h, time 5 day): 2.67%
NEUTROPHIL (120 h, time 5 day): 8.33%
NUCLEATED RED BLOOD CELLS (120 h, time 5 day): 0 /100WBC
PLATELET COUNT (120 h, time 5 day): 970.33 x10E3/uL
ALANINE AMINOTRANSFERASE (120 h, time 5 day): 85 u/L
ALBUMIN (120 h, time 5 day): 4.6 G/DL
ALKALINE PHOSPHATASE (120 h, time 5 day): 399.33 u/L
ASPARTATE AMINOTRANSFERASE (120 h, time 5 day): 105 u/L
BLOOD UREA NITROGEN (120 h, time 5 day): 12.67 mg/dL
CARBON DIOXIDE (120 h, time 5 day): 33.67 mmol/L
CHLORIDE (120 h, time 5 day): 103.67 MEQ/L
CHOLESTEROL (120 h, time 5 day): 63.33 mg/dL
CREATININE (120 h, time 5 day): 0.21 mg/dL
GLUCOSE (120 h, time 5 day): 116 mg/dL
LACTATE DEHYDROGENASE (120 h, time 5 day): 107.67 u/L
LIPASE (120 h, time 5 day): 9.33 u/L
PHOSPHORUS (120 h, time 5 day): 10.87 mg/dL
POTASSIUM (120 h, time 5 day): 5.17 MEQ/L
SODIUM (120 h, time 5 day): 146.4 MEQ/L
TOTAL BILIRUBIN (120 h, time 5 day): 0.23 mg/dL
TOTAL PROTEIN (120 h, time 5 day): 6.17 G/DL
URIC ACID (120 h, time 5 day): 0.8 mg/dL
ABSOLUTE BASOPHIL ([…], time 14 day): 0 CELLS/uL
ABSOLUTE EOSINOPHIL ([…], time 14 day): 120.4 CELLS/uL
ABSOLUTE LYMPHOCYTE ([…], time 14 day): 11064.6 CELLS/uL
ABSOLUTE MONOCYTE ([…], time 14 day): 372 CELLS/uL
ABSOLUTE SEGMENTED NEUTROPHIL ([…], time 14 day): 2303 CELLS/uL
BASOPHIL ([…], time 14 day): 0%
EOSINOPHIL ([…], time 14 day): 0.8%
ERYTHROCYTE COUNT ([…], time 14 day): 6.18 x10E6/uL
HEMATOCRIT ([…], time 14 day): 34.92%
HEMOGLOBIN ([…], time 14 day): 12.94 G/DL
LEUKOCYTE COUNT ([…], time 14 day): 13.86 x10E3/uL
LYMPHOCYTE ([…], time 14 day): 80.8%
MEAN CORPUSCULAR HEMOGLOBIN ([…], time 14 day): 20.96 pg
MEAN CORPUSCULAR HEMOGLOBIN CONCENTRATION ([…], time 14 day): 37.08 G/DL
MEAN CORPUSCULAR VOLUME ([…], time 14 day): 56.58 fL
MONOCYTE ([…], time 14 day): 2.6%
NEUTROPHIL ([…], time 14 day): 15.8%
NUCLEATED RED BLOOD CELLS ([…], time 14 day): 0 /100WBC
PLATELET COUNT ([…], time 14 day): 862.2 x10E3/uL
ALANINE AMINOTRANSFERASE ([…], time 14 day): 65.6 u/L
ALBUMIN ([…], time 14 day): 4.56 G/DL
ALKALINE PHOSPHATASE ([…], time 14 day): 422.2 u/L
ASPARTATE AMINOTRANSFERASE ([…], time 14 day): 104.6 u/L
BLOOD UREA NITROGEN ([…], time 14 day): 19.6 mg/dL
CARBON DIOXIDE ([…], time 14 day): 25.8 mmol/L
CHLORIDE ([…], time 14 day): 106.8 MEQ/L
CHOLESTEROL ([…], time 14 day): 71.4 mg/dL
CREATININE ([…], time 14 day): 0.25 mg/dL
GLUCOSE ([…], time 14 day): 140.6 mg/dL
LACTATE DEHYDROGENASE ([…], time 14 day): 190 u/L
LIPASE ([…], time 14 day): 9.2 u/L
PHOSPHORUS ([…], time 14 day): 10.96 mg/dL
POTASSIUM ([…], time 14 day): 5.79 MEQ/L
SODIUM ([…], time 14 day): 145.9 MEQ/L
TOTAL BILIRUBIN ([…], time 14 day): 0.16 mg/dL
TOTAL PROTEIN ([…], time 14 day): 6.14 G/DL
URIC ACID ([…], time 14 day): 1.44 mg/dL

From ChEMBL document CHEMBL3885881, “DrugMatrix”
